Experiments:
[1] = Cytotoxicity against human MT4 cells assessed as cell viability measured after 5 days by MTS assay; format: toxicity, cell-based; details: time 5 day
Enterovirus A71 [2] = assay: Antiviral activity against EV-A71 genotype A BrCr infected in RD cells assessed as protection against virus induced cytopatheic effect measured after 5 days by MTS assay; format: functional, organism-based; details: 120 h
[3] = tested on: Human immunodeficiency virus 2; assay: Antiviral activity against HIV2 ROD infected in human MT4 cells assessed as protection against virus induced cytopatheic effect measured after 5 days by MTS assay; format: functional, organism-based; details: Human immunodeficiency virus 2, ROD, MT4, 120 h
[4] = tested on: Human immunodeficiency virus 1; assay: Antiviral activity against HIV1 NL4-3 infected in human MT4 cells assessed as protection against virus induced cytopatheic effect measured after 5 days by MTS assay; format: functional, organism-based; details: Human immunodeficiency virus 1, NL4-3, MT4, 120 h
Enterovirus A71 [5] = assay: Antiviral activity against Enterovirus A71 BrCr harboring VP1_S184T mutant infected in RD cells assessed as protection against virus induced cytopatheic effect measured after 5 days by MTS assay; format: functional, organism-based
[6] = Selectivity index, ratio of CC50 for human RD cells to EC50 for antiviral activity against EV-A71; format: toxicity; details: read-out: Ratio CC50/EC50
Enterovirus A71 [7] = assay: Antiviral activity against EV-A71 infected in RD cells assessed as protection against virus induced cytopatheic effect measured after 5 days by MTS assay; format: functional, organism-based; details: Enterovirus A, 120 h
[8] = Cytotoxicity against human RD cells assessed as cell viability measured after 5 days by MTS assay; format: toxicity, cell-based; details: time 5 day
Enterovirus A71 [9] = assay: Antiviral activity against Enterovirus A71 BrCr harboring VP1_P246S mutant infected in RD cells assessed as protection against virus induced cytopatheic effect measured after 5 days by MTS assay; format: functional, organism-based
[10] = Selectivity index, ratio of CC50 for human MT4 cells to EC50 for antiviral activity against HIV-1 NL4.3; format: toxicity; details: read-out: Ratio CC50/EC50
Enterovirus A71 [11] = assay: Antiviral activity against Enterovirus A71 BrCr harboring VP1_S184T_P246S mutant infected in RD cells assessed as protection against virus induced cytopatheic effect measured after 5 days by MTS assay; format: functional, organism-based

Structure (SMILES) | CC50 at 120 h [1] [nM] | EC50 (Enterovirus A71 [2]) [nM] | EC50 [3] [nM] | EC50 [4] [nM] | EC50 (Enterovirus A71 [5]) [nM] | selectivity ratio [6] | EC50 (Enterovirus A71 [7]) [nM] | CC50 at 120 h [8] [nM] | EC50 (Enterovirus A71 [9]) [nM] | selectivity ratio [10] | EC50 (Enterovirus A71 [11]) [nM]
O=C(CCC(CCC(=O)NC(Cc1c(-c2cc(C(=O)O)cc(C(=O)O)c2)[nH]c2ccccc12)C(=O)O)(CCC(=O)NC(Cc1c(-c2cc(C(=O)O)cc(C(=O)O)c2)[nH]c2ccccc12)C(=O)O)[N+](=O)[O-])NC(Cc1c(-c2cc(C(=O)O)cc(C(=O)O)c2)[nH]c2ccccc12)C(=O)O (stereo not given) | > 100000 | 353 | 630 | 270 | 2300 | > 103 | 350 | > 75000 | 1900 | > 370 | 2200
NC(CCC(=O)NC(Cc1c(-c2cc(C(=O)O)cc(C(=O)O)c2)[nH]c2ccccc12)C(=O)O)(CCC(=O)NC(Cc1c(-c2cc(C(=O)O)cc(C(=O)O)c2)[nH]c2ccccc12)C(=O)O)CCC(=O)NC(Cc1c(-c2cc(C(=O)O)cc(C(=O)O)c2)[nH]c2ccccc12)C(=O)O (stereo not given) | > 50000 | – | 100 | 460 | – | > 133 | 750 | > 100000 | – | > 109 | –
O=C(CCC(CCC(=O)NC(Cc1c(-c2cc(C(=O)O)cc(C(=O)O)c2)[nH]c2ccccc12)C(=O)O)(CCC(=O)NC(Cc1c(-c2cc(C(=O)O)cc(C(=O)O)c2)[nH]c2ccccc12)C(=O)O)NC(=O)Nc1ccc2c(c1)Cc1ccccc1-2)NC(Cc1c(-c2cc(C(=O)O)cc(C(=O)O)c2)[nH]c2ccccc12)C(=O)O (stereo not given) | > 100000 | – | 50 | 60 | – | > 400 | 250 | > 100000 | – | > 1670 | –
O=C(CCC(CCC(=O)NC(Cc1c(-c2cc(C(=O)O)cc(C(=O)O)c2)[nH]c2ccccc12)C(=O)O)(CCC(=O)NC(Cc1c(-c2cc(C(=O)O)cc(C(=O)O)c2)[nH]c2ccccc12)C(=O)O)NC(=O)Nc1ccc2ccccc2c1)NC(Cc1c(-c2cc(C(=O)O)cc(C(=O)O)c2)[nH]c2ccccc12)C(=O)O (stereo not given) | > 100000 | – | 220 | 380 | – | > 70 | 970 | > 68000 | – | > 263 | –
O=C(CCC(CCC(=O)NC(Cc1c(-c2cc(C(=O)O)cc(C(=O)O)c2)[nH]c2ccccc12)C(=O)O)(CCC(=O)NC(Cc1c(-c2cc(C(=O)O)cc(C(=O)O)c2)[nH]c2ccccc12)C(=O)O)NC(=O)CCCCNC(=O)Nc1cc(C(=O)O)cc(C(=O)O)c1)NC(Cc1c(-c2cc(C(=O)O)cc(C(=O)O)c2)[nH]c2ccccc12)C(=O)O (stereo not given) | > 100000 | – | 40 | 200 | – | > 2000 | 150 | > 300000 | – | > 500 | –
O=C(CCC(CCC(=O)N[C@@H](Cc1c[nH]c2ccccc12)C(=O)O)(CCC(=O)N[C@@H](Cc1c[nH]c2ccccc12)C(=O)O)NC(=O)CCOCC(COCCC(=O)NC(CCC(=O)N[C@@H](Cc1c[nH]c2ccccc12)C(=O)O)(CCC(=O)N[C@@H](Cc1c[nH]c2ccccc12)C(=O)O)CCC(=O)N[C@@H](Cc1c[nH]c2ccccc12)C(=O)O)(COCCC(=O)NC(CCC(=O)N[C@@H](Cc1c[nH]c2ccccc12)C(=O)O)(CCC(=O)N[C@@H](Cc1c[nH]c2ccccc12)C(=O)O)CCC(=O)N[C@@H](Cc1c[nH]c2ccccc12)C(=O)O)COCCC(=O)NC(CCC(=O)N[C@@H](Cc1c[nH]c2ccccc12)C(=O)O)(CCC(=O)N[C@@H](Cc1c[nH]c2ccccc12)C(=O)O)CCC(=O)N[C@@H](Cc1c[nH]c2ccccc12)C(=O)O)N[C@@H](Cc1cc2ccccc2[nH]1)C(=O)O | > 100000 | – | 6600 | 2300 | 2000 | > 203 | 300 | 25000 | 4700 | > 43 | 8900
O=C(CCC(CCC(=O)NC(Cc1c(-c2cc(C(=O)O)cc(C(=O)O)c2)[nH]c2ccccc12)C(=O)O)(CCC(=O)NC(Cc1c(-c2cc(C(=O)O)cc(C(=O)O)c2)[nH]c2ccccc12)C(=O)O)NC(=O)CCCCCCNC(=O)c1cc(O)c2c(c1)C(=O)c1cccc(O)c1C2=O)NC(Cc1c(-c2cc(C(=O)O)cc(C(=O)O)c2)[nH]c2ccccc12)C(=O)O (stereo not given) | > 100000 | – | 710 | 3110 | – | > 69 | 1430 | > 100000 | – | > 32 | –
O=C(CCC(CCC(=O)NC(Cc1c(-c2cc(C(=O)O)cc(C(=O)O)c2)[nH]c2ccccc12)C(=O)O)(CCC(=O)NC(Cc1c(-c2cc(C(=O)O)cc(C(=O)O)c2)[nH]c2ccccc12)C(=O)O)NC(=O)Nc1cccc(C(=O)O)c1)NC(Cc1c(-c2cc(C(=O)O)cc(C(=O)O)c2)[nH]c2ccccc12)C(=O)O (stereo not given) | > 100000 | – | 110 | 710 | – | > 142 | 480 | > 68000 | – | > 141 | –
O=C(CCC(CCC(=O)NC(Cc1c(-c2cc(C(=O)O)cc(C(=O)O)c2)[nH]c2ccccc12)C(=O)O)(CCC(=O)NC(Cc1c(-c2cc(C(=O)O)cc(C(=O)O)c2)[nH]c2ccccc12)C(=O)O)NC(=O)CCCCCCCCCCNC(=O)Nc1cc(C(=O)O)cc(C(=O)O)c1)NC(Cc1c(-c2cc(C(=O)O)cc(C(=O)O)c2)[nH]c2ccccc12)C(=O)O (stereo not given) | > 100000 | – | 960 | 3990 | – | > 72 | 1380 | > 100000 | – | > 25 | –
O=C(CCC(CCC(=O)NC(Cc1c(-c2cc(C(=O)O)cc(C(=O)O)c2)[nH]c2ccccc12)C(=O)O)(CCC(=O)NC(Cc1c(-c2cc(C(=O)O)cc(C(=O)O)c2)[nH]c2ccccc12)C(=O)O)NC(=O)COCCOCCNc1ccc([N+](=O)[O-])cc1[N+](=O)[O-])NC(=O)Cc1c(-c2cc(C(=O)O)cc(C(=O)O)c2)[nH]c2ccccc12 (stereo not given) | > 100000 | – | 560 | 8390 | – | > 103 | 970 | > 100000 | – | > 12 | –
O=C(CCC(CCC(=O)NC(Cc1c(-c2cc(C(=O)O)cc(C(=O)O)c2)[nH]c2ccccc12)C(=O)O)(CCC(=O)NC(Cc1c(-c2cc(C(=O)O)cc(C(=O)O)c2)[nH]c2ccccc12)C(=O)O)NC(=O)CCCCNc1ccc([N+](=O)[O-])cc1[N+](=O)[O-])NC(Cc1c(-c2cc(C(=O)O)cc(C(=O)O)c2)[nH]c2ccccc12)C(=O)O (stereo not given) | > 100000 | – | 130 | 3610 | – | > 93 | 1070 | > 100000 | – | > 28 | –
O=C(CCC(CCC(=O)NC(Cc1c(-c2cc(C(=O)O)cc(C(=O)O)c2)[nH]c2ccccc12)C(=O)O)(CCC(=O)NC(Cc1c(-c2cc(C(=O)O)cc(C(=O)O)c2)[nH]c2ccccc12)C(=O)O)NC(=O)Nc1cc(C(=O)O)cc(C(=O)O)c1)NC(Cc1c(-c2cc(C(=O)O)cc(C(=O)O)c2)[nH]c2ccccc12)C(=O)O (stereo not given) | > 100000 | – | 90 | 290 | – | > 150 | 400 | > 60000 | – | > 345 | –
CCOC(=O)c1ccc(OCCC2CCN(c3ccc(C)nn3)CC2)cc1 [PIRODAVIR] | – | – | – | – | – | > 333 | – | > 100000 | – | – | –
CN[C@@H]1[C@H](O[C@@H]2OC[C@@H](O)[C@H](O)[C@H]2O)[C@@H](O)[C@H](O[C@H]2c3cc(C)c(C(=O)N[C@H](C)C(=O)O)c(O)c3-c3c(cc4c(c3O)C(=O)c3cc(OC)cc(O)c3C4=O)[C@@H]2O)O[C@@H]1C [PRADIMICIN A] | > 100000 | – | – | – | – | – | – | – | – | > 30 | –
